Measured values taken from US20100035259A1, “BIOMARKERS AND METHODS FOR DETERMINING SENSITIVITY TO VASCULAR ENDOTHELIAL GROWTH FACTOR RECEPTOR-2 MODULATORS” (Bristol-Myers Squibb Company, priority 2007, published 2010).

What was measured:
mouse stromal tissues = experiment: Transcriptional profiling of GEO xenograft tumors on mouse 430A arrays (genes in mouse stromal tissues); format: in vivo; details: for ESM1 level: after 2 hours treatment; for expression value of ESM1 in stromal tissue: treatment at 17 Days, in comparison with the control (FIG. 1)
Description: (§1) Tumors were propagated in nude mice as subcutaneous (sc) implants using human GEO colon tumor cell lines. Tumors were maintained in nude mice by serial passage. Treated animals were checked daily for treatment related toxicity/mortality. Each group of animals was weighed before the initiation of treatment (Wt1) and then again following the last treatment dose (Wt2). The difference in body weight (Wt2-Wt1) provided an overt measure of treatment-related toxicity. […] Tumor response was determined by measurement of tumors with a caliper twice a week, until the tumors reached a predetermined target size. Animals that were distributed to various treatment and control groups during the study were eventually sacrificed to obtain tumor and blood samples for genomic and protein analysis (Table 1).
(§2) Mouse GEO xenograft tumors, treated and non-treated, were surgically removed at appropriate time points and split into two halves. One half of the tumor was mixed in a vial of 10% formalin to be used for IHC and the other half was mixed in 1.0 ml of RNAlater™ RNA Stabilization Reagent (Ambion, Inc., Austin, Tex.) held at room temperature for 30-minutes then stored at −80° C. Total RNA was extracted from the tumor samples using the RNeasy Kit™ (Qiagen, Valencia Calif.). A least 1 μg total RNA with a 260/280 ratio >1.8 by spectrophotometry (DU640 UV, Beckman Coulter, Fullerton, Calif.) was required for transcriptional profiling. Briefly, the tumor samples were homogenized in a lysis-binding solution supplied by Qiagen. An equal volume of ethanol was mixed into each sample, the mixture was passed through the filter cartridges provided, and the rest of the extraction protocol was followed (Ambion). RNA yield and quality were assessed on a standard 1% agarose gel. […] RNA samples were stored at −80° C.
(§3) Transcriptional profiling was performed on the RNA obtained from the GEO xenograft tumor samples. The Affymetrix GeneChip system (Affymetrix, Santa Clara, Calif.) was used for hybridization and scanning of the human U133A and mouse 430A arrays. Generation of cRNA followed a standard T7 amplification protocol. Total RNA was reverse-transcribed with SuperScript II™ (Gibco, Carlsbad, Calif.) in the presence of T7-(dT)24 primer to generate first strand cDNA. A second-strand cDNA synthesis was performed in the presence of DNA Polymerase I, DNA ligase, and RNase H (Gibco). The resulting double-stranded cDNA was blunt-ended using T4 DNA polymerase. This double-stranded cDNA was then transcribed into cRNA in the presence of biotin-ribonucleotides using the BioArray High Yield RNA transcript labeling kit (Enzo Life Sciences, Farmingdale, N.Y.). The amplified, biotin-labeled cRNA was purified using Qiagen RNeasy™ columns (Qiagen Sciences), quantified and fragmented at 94° C. for 35 minutes in the presence of fragmentation buffer (1×). Fragmented cRNA was hybridized to the Affymetrix U113A and 430A arrays overnight at 42° C. The arrays were then placed in the fluidics stations for staining and washing as recommended by Affymetrix protocols. The chips were scanned and raw intensity values were generated for each probe on the arrays.
(§4) 20 HG-U133A2 chips were normalized by the RMA (Robust Multi-array Analysis) method as described by R. A. Irizarry et al., Nucleic Acids Res., February 15; 31(4):e15 (2003). The same normalization was done for the 20 Mouse430A2 chips.
(§5) Differentially expressed genes were defined as: (i) FDR (false discovery rate) q value less than 0.05 when comparing specific compound treatment at single time point to the control (no treatment) at 0 time point and (ii) fold change bigger than 2 (log2Foldchange>1 or <−1) when compared specific treatment to control.

human GEO colon tumor = experiment: Tumor growth in GEO colon cancer model (caliper measurement); format: in vivo, nude mice; details: compared to bevacizumab
Description: as §1

[1] = system: human GEO colon tumor xenograft tumor tissues; experiment: Transcriptional profiling of GEO xenograft tumors on human U133A arrays (genes in tumor tissues); format: in vivo
Description: as §1, §2, §3, §4, §5

VEGFR-2 = VEGFR-2 (Homo sapiens, UniProt P35968); experiment: Inhibition of VEGFR-2; format: biochemical
FGFR-2 = FGFR-2 (Homo sapiens, UniProt P21802); experiment: Inhibition of FGFR-2; format: biochemical
FGFR-1 = FGFR-1 (Homo sapiens, UniProt P11362); experiment: Inhibition of FGFR-1; format: biochemical
[2] = mouse stroma tissue, 17 days time point
[3] = tumor xenografts, after 17 days
[4] = xenograft tumor tissues, 17 days (FIG. 4)

Chain of VEGFR-2 (P35968 20-1356, species assumed): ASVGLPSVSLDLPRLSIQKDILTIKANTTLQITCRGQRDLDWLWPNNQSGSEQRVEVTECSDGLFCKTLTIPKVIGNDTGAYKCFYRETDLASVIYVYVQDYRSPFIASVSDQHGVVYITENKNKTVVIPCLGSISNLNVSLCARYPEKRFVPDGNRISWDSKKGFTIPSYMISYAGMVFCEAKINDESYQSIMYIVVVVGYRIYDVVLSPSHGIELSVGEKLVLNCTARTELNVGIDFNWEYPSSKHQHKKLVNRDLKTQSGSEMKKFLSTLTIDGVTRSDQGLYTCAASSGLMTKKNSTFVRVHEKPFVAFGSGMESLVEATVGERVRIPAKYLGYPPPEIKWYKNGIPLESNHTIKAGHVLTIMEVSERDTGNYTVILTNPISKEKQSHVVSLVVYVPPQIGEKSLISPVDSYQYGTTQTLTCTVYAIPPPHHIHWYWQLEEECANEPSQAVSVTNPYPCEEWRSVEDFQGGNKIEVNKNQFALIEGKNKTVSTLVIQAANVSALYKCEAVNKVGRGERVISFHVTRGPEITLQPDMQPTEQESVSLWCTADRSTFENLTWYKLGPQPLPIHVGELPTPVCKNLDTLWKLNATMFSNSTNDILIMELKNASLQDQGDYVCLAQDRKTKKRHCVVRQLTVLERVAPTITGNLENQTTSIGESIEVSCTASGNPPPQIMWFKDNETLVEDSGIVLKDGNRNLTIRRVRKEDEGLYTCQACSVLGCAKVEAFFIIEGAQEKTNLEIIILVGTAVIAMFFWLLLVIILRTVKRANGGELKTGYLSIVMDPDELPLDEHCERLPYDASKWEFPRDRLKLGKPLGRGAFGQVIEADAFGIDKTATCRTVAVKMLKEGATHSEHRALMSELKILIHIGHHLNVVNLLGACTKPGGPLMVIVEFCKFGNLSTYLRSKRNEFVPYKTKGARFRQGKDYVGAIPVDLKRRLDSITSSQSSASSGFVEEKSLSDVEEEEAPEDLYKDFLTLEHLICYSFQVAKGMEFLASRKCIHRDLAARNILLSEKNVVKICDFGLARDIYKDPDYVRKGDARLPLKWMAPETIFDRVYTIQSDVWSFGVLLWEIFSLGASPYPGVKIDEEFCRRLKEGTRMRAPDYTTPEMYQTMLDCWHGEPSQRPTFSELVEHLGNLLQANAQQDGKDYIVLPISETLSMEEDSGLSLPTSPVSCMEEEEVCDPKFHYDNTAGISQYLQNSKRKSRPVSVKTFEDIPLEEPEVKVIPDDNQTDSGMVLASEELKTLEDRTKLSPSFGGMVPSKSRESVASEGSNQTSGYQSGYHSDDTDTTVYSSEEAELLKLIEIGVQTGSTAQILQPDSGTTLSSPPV
Chain of FGFR-2 (P21802 22-821, species assumed): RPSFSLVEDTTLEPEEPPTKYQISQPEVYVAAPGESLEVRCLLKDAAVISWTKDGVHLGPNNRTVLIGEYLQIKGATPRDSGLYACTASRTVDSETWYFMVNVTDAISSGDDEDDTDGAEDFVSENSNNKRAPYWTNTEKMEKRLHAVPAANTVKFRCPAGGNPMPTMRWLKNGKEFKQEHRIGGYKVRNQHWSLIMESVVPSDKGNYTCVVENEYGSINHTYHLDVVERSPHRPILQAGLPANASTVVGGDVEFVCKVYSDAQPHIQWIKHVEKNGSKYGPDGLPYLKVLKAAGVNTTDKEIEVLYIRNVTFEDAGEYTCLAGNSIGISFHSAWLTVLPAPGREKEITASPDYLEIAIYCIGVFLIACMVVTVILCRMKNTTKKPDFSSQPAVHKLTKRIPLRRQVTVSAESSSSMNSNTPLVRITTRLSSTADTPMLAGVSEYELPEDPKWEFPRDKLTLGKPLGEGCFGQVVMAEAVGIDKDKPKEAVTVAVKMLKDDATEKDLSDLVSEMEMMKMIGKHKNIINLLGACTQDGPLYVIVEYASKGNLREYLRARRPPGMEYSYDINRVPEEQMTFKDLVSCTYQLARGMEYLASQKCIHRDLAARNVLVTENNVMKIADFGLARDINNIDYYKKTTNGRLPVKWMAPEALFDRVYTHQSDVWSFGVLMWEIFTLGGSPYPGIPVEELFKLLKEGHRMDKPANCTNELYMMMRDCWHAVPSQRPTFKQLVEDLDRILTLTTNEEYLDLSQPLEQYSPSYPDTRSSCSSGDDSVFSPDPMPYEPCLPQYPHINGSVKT
Chain of FGFR-1 (P11362 22-822, species assumed): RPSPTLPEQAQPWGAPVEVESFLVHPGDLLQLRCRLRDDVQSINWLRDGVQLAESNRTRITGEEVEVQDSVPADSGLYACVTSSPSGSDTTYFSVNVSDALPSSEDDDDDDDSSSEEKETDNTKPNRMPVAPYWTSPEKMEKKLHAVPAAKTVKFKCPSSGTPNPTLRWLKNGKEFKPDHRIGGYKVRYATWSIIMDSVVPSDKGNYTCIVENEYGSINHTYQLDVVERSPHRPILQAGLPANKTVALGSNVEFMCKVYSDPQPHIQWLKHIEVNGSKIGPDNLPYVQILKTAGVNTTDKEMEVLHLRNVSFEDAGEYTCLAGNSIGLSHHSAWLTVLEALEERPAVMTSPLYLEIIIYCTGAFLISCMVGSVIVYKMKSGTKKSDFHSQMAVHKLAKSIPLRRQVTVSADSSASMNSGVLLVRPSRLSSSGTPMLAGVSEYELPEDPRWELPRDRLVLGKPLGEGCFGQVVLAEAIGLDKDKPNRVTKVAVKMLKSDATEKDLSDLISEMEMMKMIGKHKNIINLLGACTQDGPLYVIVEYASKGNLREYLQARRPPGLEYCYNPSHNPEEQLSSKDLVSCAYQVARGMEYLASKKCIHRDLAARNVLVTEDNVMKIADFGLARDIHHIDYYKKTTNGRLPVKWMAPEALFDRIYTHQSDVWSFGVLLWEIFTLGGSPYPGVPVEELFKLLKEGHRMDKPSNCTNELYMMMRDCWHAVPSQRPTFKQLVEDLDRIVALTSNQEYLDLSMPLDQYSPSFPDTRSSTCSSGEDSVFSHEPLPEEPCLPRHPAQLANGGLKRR

With “bevacizumab: AVASTIN (bevacizumab), indirectly inhibits the VEGFR-2 signaling pathway by preventing VEGF ligand binding [reference compound]” the ESM1 level (mouse stromal tissues) was “decreasing trend” and the “expression value of ESM1 in stromal tissue” value (mouse stromal tissues) was “significantly decreases”.
`Cc1cc2c(F)c(Oc3ncnn4cc(OC[C@@H](C)OC(=O)[C@H](C)N)c(C)c34)ccc2[nH]1` [compound 1, [(1R), 2S]-2-Aminopropionic acid 2-[4-(4-fluoro-2-methyl-1H-indol-5-yloxy)-5-methylpyrrolo[2,1-f][1,2,4]triazin-6-yloxy]-1-methylethyl ester] was tested, and the “ability to inhibit tumor growth” value (human GEO colon tumor) was “increase affect on the ability to inhibit tumor growth when compared to bevacizumab”, the ESM1 level (mouse stromal tissues) was “decreasing trend” and the “expression level of S100A8” value (mouse stromal tissues; [2]) was “up-regulated”. For the same molecule, the “expression level of S100A9” value (mouse stromal tissues; [2]) was “up-regulated”, the “expression value of ESM1 in stromal tissue” value (mouse stromal tissues) was “significantly decreases” and the CD14 expression (mouse stromal tissues; upon treatment, 17 days) was “elevated”. For the same molecule, the CEACAM1 expression ([1]; 3 probe sets (206576_s_at, 211889_x_at, 209498_at), treatment at 17 days) was “significant increase”, the “expression level of RAGE, up-regulated” value ([1]; human xenograft tissue, 17 days, FDR q=0.002) was 1.9 fold and the AKAP7 inhibited ([1]; treatment at 17 days, FDR q<0.008 (FIG. 4)) was 3.5 fold. The EMP1 up-regulated ([1]; tumor tissue, 17 Days, significant FDR q values (FIG. 3)) was 3.9 fold, the FGF-8 levels [1, 3] was “elevated” and the FGF-18 levels [1, 3] was “elevated”. The FGF-22 levels [1, 3] was “elevated”, the FGFR-2 levels [1, 3] was “elevated” and the FGF-2 levels ([1]; tumor xenografts, after 17 days, low expression) was “didn't change much”. For the same molecule, the “Expression of Collagen 18” value [1, 4] was “up-regulated”, the VEGF expression [1, 4] was “up-regulated” and the VEGFB expression [1, 4] was “up-regulated”. The “inhibition of VEGFR-2” value (VEGFR-2) was “potent inhibition”, the “inhibition of FGFR-2” value (FGFR-2) was “inhibition” and the “inhibition of FGFR-1” value (FGFR-1) was “inhibition”.
